Reference: ChEMBL document CHEMBL3044672, “N9- and N7-(Chloromethyl Phenymethyl)Chloropurine Derivatives from , '-Dichloroxylenes: Synthesis and Anticancer Activity” (2005)

Assays:
Type in all cases: functional
[1] = test system: SK-OV-3; experiment: Cytotoxicity against Homo sapiens (human) SKOV3 cells after 48 hr by sulforhodamine B assay; details: SK-OV-3, 48 h
[2] = test system: OVCAR-8; experiment: Cytotoxicity against Homo sapiens (human) OVCAR8 cells after 48 hr by sulforhodamine B assay; details: OVCAR-8, 48 h
[3] = test system: OVCAR-5; experiment: Cytotoxicity against Homo sapiens (human) OVCAR5 cells after 48 hr by sulforhodamine B assay; details: OVCAR-5, 48 h
[4] = test system: IGROV-1; experiment: Cytotoxicity against Homo sapiens (human) IGROV1 cells after 48 hr by sulforhodamine B assay; details: IGROV-1, 48 h
[5] = test system: OVCAR-3; experiment: Cytotoxicity against Homo sapiens (human) OVCAR3 cells after 48 hr by sulforhodamine B assay; details: OVCAR-3, 48 h
[6] = test system: SK-MEL-5; experiment: Cytotoxicity against Homo sapiens (human) SK-MEL-5 cells after 48 hr by sulforhodamine B assay; details: SK-MEL-5, 48 h
[7] = test system: SK-MEL-28; experiment: Cytotoxicity against Homo sapiens (human) SK-MEL-28 cells after 48 hr by sulforhodamine B assay; details: SK-MEL-28, 48 h
[8] = test system: SK-MEL-2; experiment: Cytotoxicity against Homo sapiens (human) SK-MEL-2 cells after 48 hr by sulforhodamine B assay; details: SK-MEL-2, 48 h
[9] = test system: LOX IMVI; experiment: Cytotoxicity against Homo sapiens (human) LOXIMVI cells after 48 hr by sulforhodamine B assay
[10] = test system: M14; experiment: Cytotoxicity against Homo sapiens (human) M14 cells after 48 hr by sulforhodamine B assay; details: M14, 48 h
[11] = test system: U-251; experiment: Cytotoxicity against Homo sapiens (human) U251 cells after 48 hr by sulforhodamine B assay; details: U-251, 48 h
[12] = test system: T47D; experiment: Cytotoxicity against Homo sapiens (human) T47D cells after 48 hr by sulforhodamine B assay
[13] = test system: BT-549; experiment: Cytotoxicity against Homo sapiens (human) BT549 cells after 48 hr by sulforhodamine B assay; details: BT-549, 48 h
[14] = Cytotoxicity against Homo sapiens (human) NCI-ADR-RES cells after 48 hr by sulforhodamine B assay
[15] = test system: DU-145; experiment: Cytotoxicity against Homo sapiens (human) DU145 cells after 48 hr by sulforhodamine B assay; details: DU-145, 48 h
[16] = test system: MCF7; experiment: Cytotoxicity against Homo sapiens (human) MCF7 cells after 48 hr by sulforhodamine B assay; details: MCF7, 48 h
[17] = test system: UO-31; experiment: Cytotoxicity against Homo sapiens (human) UO31 cells after 48 hr by sulforhodamine B assay; details: UO-31, 48 h
[18] = test system: PC-3; experiment: Cytotoxicity against Homo sapiens (human) PC3 cells after 48 hr by sulforhodamine B assay; details: PC-3, 48 h
[19] = test system: RXF 393; experiment: Cytotoxicity against Homo sapiens (human) RXF393 cells after 48 hr by sulforhodamine B assay; details: RXF 393, 48 h
[20] = test system: CAKI-1; experiment: Cytotoxicity against Homo sapiens (human) Caki1 cells after 48 hr by sulforhodamine B assay; details: CAKI-1, 48 h
[21] = test system: SF-295; experiment: Cytotoxicity against Homo sapiens (human) SF295 cells after 48 hr by sulforhodamine B assay; details: SF-295, 48 h
[22] = test system: SF-268; experiment: Cytotoxicity against Homo sapiens (human) SF268 cells after 48 hr by sulforhodamine B assay; details: SF-268, 48 h
[23] = test system: HT-29; experiment: Cytotoxicity against Homo sapiens (human) HT-29 cells after 48 hr by sulforhodamine B assay; details: HT-29, 48 h
[24] = test system: HCC 2998; experiment: Cytotoxicity against Homo sapiens (human) HCC2998 cells after 48 hr by sulforhodamine B assay; details: HCC 2998, 48 h
[25] = test system: NCI-H460; experiment: Cytotoxicity against Homo sapiens (human) NCI-H460 cells after 48 hr by sulforhodamine B assay; details: NCI-H460, 48 h
[26] = test system: NCI-H322M; experiment: Cytotoxicity against Homo sapiens (human) NCI-H322M cells after 48 hr by sulforhodamine B assay
[27] = test system: NCI-H23; experiment: Cytotoxicity against Homo sapiens (human) NCI-H23 cells after 48 hr by sulforhodamine B assay; details: NCI-H23, 48 h
[28] = test system: HOP-62; experiment: Cytotoxicity against Homo sapiens (human) HOP62 cells after 48 hr by sulforhodamine B assay; details: HOP-62, 48 h
[29] = test system: EKVX; experiment: Cytotoxicity against Homo sapiens (human) EKVX cells after 48 hr by sulforhodamine B assay
[30] = test system: MOLT-4; experiment: Cytotoxicity against Homo sapiens (human) MOLT4 cells after 48 hr by sulforhodamine B assay; details: MOLT-4, 48 h
[31] = test system: CCRF-CEM; experiment: Cytotoxicity against Homo sapiens (human) CCRF-CEM cells after 48 hr by sulforhodamine B assay
[32] = test system: MCF7; experiment: Cytotoxicity against Homo sapiens (human) MCF7 cells assessed as cell growth at 10^-4 M after 48 hr by Alamar blue assay; details: MCF7, 48 h, read-out: Activity
[33] = read-out: LC50 (the source's name)

Question: With ClCc1cccc(Cn2cnc3ncnc(Cl)c32)c1 as the molecule, how does the GI50 [1] read?
Answer: 10.7 µM

Question: What about the LC50 [1] of the same molecule?
Answer: 8.12 µM

Question: And the TGI [1]?
Answer: 25.7 µM

Question: What about the GI50 [2] of the same molecule?
Answer: 3.09 µM

Question: And the LC50 (concentration killing 50% of cells) [2]?
Answer: 60.2 µM

Question: What about the TGI [2] of the same molecule?
Answer: 14.8 µM

Question: And the GI50 [3]?
Answer: 6.76 µM

Question: What about the TGI [3] of the same molecule?
Answer: 19.9 µM

Question: And the CC50 [3, 33]?
Answer: > 100 µM

Question: What about the GI50 [4] of the same molecule?
Answer: 3.38 µM

Question: What about the LC50 [4] of the same molecule?
Answer: 5.88 µM

Question: What about the TGI [4] of the same molecule?
Answer: 13.8 µM

Question: And the GI50 [5]?
Answer: 1770 nM

Question: What about the LC50 [5] of the same molecule?
Answer: 43.6 µM

Question: What about the TGI [5] of the same molecule?
Answer: 3.23 µM

Question: What about the GI50 [6] of the same molecule?
Answer: 4.67 µM

Question: And the LC50 [6]?
Answer: 45.7 µM

Question: What about the TGI [6] of the same molecule?
Answer: 18.2 µM

Question: What about the GI50 [7] of the same molecule?
Answer: 1810 nM

Question: And the LC50 (concentration killing 50% of cells) [7]?
Answer: 42.6 µM

Question: What about the TGI [7] of the same molecule?
Answer: 3.54 µM

Question: And the GI50 [8]?
Answer: 5.75 µM

Question: And the LC50 (concentration killing 50% of cells) [8]?
Answer: 6.76 µM

Question: And the TGI [8]?
Answer: 22.9 µM

Question: What about the GI50 [9] of the same molecule?
Answer: 3.09 µM

Question: What about the LC50 [9] of the same molecule?
Answer: 43.6 µM

Question: And the TGI [9]?
Answer: 14.1 µM

Question: What about the GI50 [10] of the same molecule?
Answer: 3.09 µM

Question: What about the LC50 [10] of the same molecule?
Answer: 67.6 µM

Question: What about the TGI [10] of the same molecule?
Answer: 14.5 µM

Question: What about the GI50 [11] of the same molecule?
Answer: 1940 nM

Question: And the LC50 (concentration killing 50% of cells) [11]?
Answer: > 100 µM

Question: And the TGI [11]?
Answer: 3.98 µM

Question: What about the GI50 [12] of the same molecule?
Answer: 210 nM

Question: What about the LC50 [12] of the same molecule?
Answer: 2880 nM

Question: And the TGI [12]?
Answer: 500 nM

Question: And the GI50 [13]?
Answer: 13.2 µM

Question: What about the LC50 (50% lethal concentration) [13] of the same molecule?
Answer: 63.1 µM

Question: What about the TGI [13] of the same molecule?
Answer: 28.8 µM

Question: And the GI50 [14]?
Answer: 2750 nM

Question: And the LC50 (concentration killing 50% of cells) [14]?
Answer: 81 µM

Question: What about the TGI [14] of the same molecule?
Answer: 9.77 µM

Question: What about the GI50 [15] of the same molecule?
Answer: 15.1 µM

Question: And the TGI [15]?
Answer: 30.9 µM

Question: What about the GI50 [16] of the same molecule?
Answer: 1580 nM

Question: And the LC50 (concentration killing 50% of cells) [16]?
Answer: 39 µM

Question: What about the TGI [16] of the same molecule?
Answer: 3.98 µM

Question: And the GI50 [17]?
Answer: 1540 nM

Question: What about the LC50 (concentration causing 50% net cell kill) [17] of the same molecule?
Answer: 26.9 µM

Question: What about the TGI [17] of the same molecule?
Answer: 3.09 µM

Question: What about the GI50 [18] of the same molecule?
Answer: 2130 nM

Question: What about the LC50 (concentration causing 50% cell kill) [18] of the same molecule?
Answer: 63.1 µM

Question: And the TGI [18]?
Answer: 5.37 µM

Question: And the GI50 [19]?
Answer: 2040 nM

Question: And the TGI [19]?
Answer: 17.4 µM

Question: And the CC50 [19, 33]?
Answer: 47.9 µM

Question: And the GI50 [20]?
Answer: 2130 nM

Question: And the TGI [20]?
Answer: 4.07 µM

Question: And the CC50 [20, 33]?
Answer: > 100 µM

Question: What about the GI50 [21] of the same molecule?
Answer: 6.3 µM

Question: What about the TGI [21] of the same molecule?
Answer: 19.1 µM

Question: And the CC50 [21, 33]?
Answer: 64.6 µM

Question: And the GI50 [22]?
Answer: 1650 nM

Question: What about the TGI [22] of the same molecule?
Answer: 3.46 µM

Question: What about the CC50 [22, 33] of the same molecule?
Answer: 47.9 µM

Question: What about the GI50 [23] of the same molecule?
Answer: 2880 nM

Question: What about the TGI [23] of the same molecule?
Answer: > 100 µM

Question: And the CC50 [23, 33]?
Answer: 6.02 µM

Question: And the GI50 [24]?
Answer: 1690 nM

Question: What about the TGI [24] of the same molecule?
Answer: 3.23 µM

Question: And the CC50 [24, 33]?
Answer: 40.7 µM

Question: And the GI50 [25]?
Answer: 2080 nM

Question: What about the TGI [25] of the same molecule?
Answer: 4.46 µM

Question: What about the CC50 [25, 33] of the same molecule?
Answer: 91.2 µM

Question: What about the GI50 [26] of the same molecule?
Answer: 1990 nM

Question: What about the TGI [26] of the same molecule?
Answer: 3.46 µM

Question: What about the CC50 [26, 33] of the same molecule?
Answer: 8.54 µM

Question: And the GI50 [27]?
Answer: 1230 nM

Question: What about the TGI [27] of the same molecule?
Answer: 3.38 µM

Question: What about the CC50 [27, 33] of the same molecule?
Answer: 5.88 µM

Question: And the GI50 [28]?
Answer: 2180 nM

Question: What about the TGI [28] of the same molecule?
Answer: 3.98 µM

Question: What about the CC50 [28, 33] of the same molecule?
Answer: 7.41 µM

Question: What about the GI50 [29] of the same molecule?
Answer: 13.8 µM

Question: What about the TGI [29] of the same molecule?
Answer: 29.5 µM

Question: And the CC50 [29, 33]?
Answer: 64.6 µM

Question: What about the GI50 [30] of the same molecule?
Answer: 10.7 µM

Question: And the TGI [30]?
Answer: 29.5 µM

Question: And the CC50 [30, 33]?
Answer: 81.3 µM

Question: What about the GI50 [31] of the same molecule?
Answer: 6.91 µM

Question: And the TGI [31]?
Answer: 22.4 µM

Question: What about the CC50 [31, 33] of the same molecule?
Answer: 60.2 µM

Question: What about the growth at 100 µM [32] of the same molecule?
Answer: 1%
